“Also recorded” adds a separate entry of the source. Counter-ions that a name gives are not always drawn.
What was measured:
PfPK6 = PfPK6 (Plasmodium falciparum, UniProt Q8IDW1); test: KinaseSeeker split-luciferase assay on PfPK6; format: binding, P. falciparum; settings: for fold drop in potency against PfPK6 relative to Ki8751 / fold increase in potency against PfPK6 compared to Ki8751: compared to Ki8751; for activity against PfPK6 in words: KinaseSeeker, 1 μM; for remaining activity at 1 µM: read-out: PfPK6 activity remaining at 1 μM (%)
P. falciparum 3D7 = test: P. falciparum asexual blood stage viability assay; format: cell-based; settings: for Pf3D7 blood stage activity at single concentration: Inactive = no inhibition when tested in triplicate at a single concentration of 1 μM; for fold improvement in P. falciparum blood stage potency on adding CF3 or OCF3: compared to parent compound without meta group (64, 66, 67 or 68)

COc1ccc2c(Oc3ccc(NC(=O)Nc4ccc(F)cc4F)c(F)c3)ccnc2c1 [Compound 1, 1-(2,4-difluorophenyl)-3-(2-fluoro-4-((7-methoxyquinolin-4-yl)oxy)phenyl)urea]
fold drop in potency against PfPK6 relative to Ki8751 (PfPK6): 3 fold

COc1ccc2nccc(Oc3ccc(NC(=O)Nc4ccc(F)cc4F)c(F)c3)c2c1 [Compound 2, 1-(2,4-difluorophenyl)-3-(2-fluoro-4-((6-methoxyquinolin-4-yl)oxy)phenyl)urea]
fold drop in potency against PfPK6 relative to Ki8751 (PfPK6): 15 fold

O=C(Nc1ccc(F)cc1F)Nc1ccc(Oc2ccnc3ccccc23)cc1F [Compound 3, 1-(2,4-difluorophenyl)-3-(2-fluoro-4-(quinolin-4-yloxy)phenyl)urea]
fold drop in potency against PfPK6 relative to Ki8751 (PfPK6): 34 fold

O=C(Nc1ccc(O)cc1F)Nc1ccc(F)cc1F [Compound 5, 1-(2,4-difluorophenyl)-3-(2-fluoro-4-hydroxyphenyl)urea]
activity against PfPK6 in words (PfPK6): completely inactive
remaining activity at 1 µM (PfPK6): 100%

COc1ccc(NC(=O)Nc2ccc(F)cc2F)c(F)c1 [Compound 6, 1-(2,4-difluorophenyl)-3-(2-fluoro-4-methoxyphenyl)urea]
activity against PfPK6 in words (PfPK6): completely inactive
remaining activity at 1 µM (PfPK6): 100%

COc1cc2nccc(Oc3ccc(NC(=O)Nc4ccccc4F)c(F)c3)c2cc1OC [Compound 7, 1-(4-((6,7-dimethoxyquinolin-4-yl)oxy)-2-fluorophenyl)-3-(2-fluorophenyl)urea]
fold increase in potency against PfPK6 compared to Ki8751 (PfPK6): ≥ 3 fold

COc1cc2nccc(Oc3ccc(NC(=O)Nc4ccc(F)cc4)c(F)c3)c2cc1OC [Compound 8, 1-(4-((6,7-dimethoxyquinolin-4-yl)oxy)-2-fluorophenyl)-3-(4-fluorophenyl)urea]
fold increase in potency against PfPK6 compared to Ki8751 (PfPK6): ≥ 3 fold

COc1cc2nccc(Oc3ccc(NC(=O)Nc4ccccc4)c(F)c3)c2cc1OC [Compound 9, 1-(4-((6,7-dimethoxyquinolin-4-yl)oxy)-2-fluorophenyl)-3-phenylurea]
fold increase in potency against PfPK6 compared to Ki8751 (PfPK6): ≥ 3 fold

COc1cc2nccc(Oc3ccc(N)c(F)c3)c2cc1OC [Compound 14, 4-((6,7-dimethoxyquinolin-4-yl)oxy)-2-fluoroaniline]
activity against PfPK6 in words (PfPK6): complete loss of activity
remaining activity at 1 µM (PfPK6): 100%

COc1cc2nccc(Oc3ccc(N)cc3)c2cc1OC [Compound 15, 4-((6,7-dimethoxyquinolin-4-yl)oxy)aniline]
activity against PfPK6 in words (PfPK6): complete loss of activity

O=C(Nc1ccc(F)cc1F)Nc1ccc(Oc2cnnc3ccccc23)cc1F [Compound 24, 1-(4-(cinnolin-4-yloxy)-2-fluorophenyl)-3-(2,4-difluorophenyl)urea]
activity against PfPK6 in words (PfPK6): complete loss of potency
remaining activity at 1 µM (PfPK6): 100%

O=C(Nc1ccc(F)cc1F)Nc1ccc(Oc2ccnc3[nH]ccc23)cc1F [Compound 29, 1-(4-((1H-pyrrolo[2,3-b]pyridin-4-yl)oxy)-2-fluorophenyl)-3-(2,4-difluorophenyl)urea]
fold improvement in PfPK6 potency on replacing the quinoline (PfPK6; compared to quinoline 3): 4 fold

COc1cc2nccc(Oc3ccc(NC(=O)Nc4cccc(C(F)(F)F)c4)c(F)c3)c2cc1OC [Compound 39, 1-(4-((6,7-dimethoxyquinolin-4-yl)oxy)-2-fluorophenyl)-3-(3-(trifluoromethyl)phenyl)urea]
IC50 (PfPK6): < 5 nM

COc1cc2nccc(Oc3ccc(NC(=O)Nc4cc(C(F)(F)F)ccc4F)c(F)c3)c2cc1OC [Compound 40, 1-(4-((6,7-dimethoxyquinolin-4-yl)oxy)-2-fluorophenyl)-3-(2-fluoro-5-(trifluoromethyl)phenyl)urea]
IC50 (PfPK6): < 5 nM
Pf3D7 blood stage activity in dose-response (P. falciparum 3D7; Inactive = no inhibition when tested up to 5 μM in two experiments, dose-response): Inactive^d

COc1cc2nccc(Oc3ccc(NC(=O)Nc4cccc(CN5CCN(C)CC5)c4)c(F)c3)c2cc1OC [Compound 42, 1-(4-((6,7-dimethoxyquinolin-4-yl)oxy)-2-fluorophenyl)-3-(3-((4-methylpiperazin-1-yl)methyl)phenyl)urea diformate]
Pf3D7 blood stage activity at single concentration (P. falciparum 3D7): loss of P. falciparum blood stage activity; also recorded: Inactive^e

COc1cc2nccc(Oc3ccc(NC(=O)Nc4ccc(C(=O)N5CCN(C)CC5)cc4)c(F)c3)c2cc1OC [Compound 43, 1-(4-((6,7-dimethoxyquinolin-4-yl)oxy)-2-fluorophenyl)-3-(4-(4-methylpiperazine-1-carbonyl)phenyl)urea]
Pf3D7 blood stage activity at single concentration (P. falciparum 3D7): did not observe antiplasmodial activity; also recorded: Inactive^e

COc1cc2nccc(Oc3ccc(NC(=O)Nc4cccc(C(=O)N5CCN(C)CC5)c4)c(F)c3)c2cc1OC [Compound 44, 1-(4-((6,7-dimethoxyquinolin-4-yl)oxy)-2-fluorophenyl)-3-(3-(4-methylpiperazine-1-carbonyl)phenyl)urea]
Pf3D7 blood stage activity at single concentration (P. falciparum 3D7): did not observe antiplasmodial activity; also recorded: Inactive^e

COc1cc2nccc(Oc3ccc(NC(=O)Nc4ccc(C(=O)N5CCN(C)CC5)c(C(F)(F)F)c4)c(F)c3)c2cc1OC [Compound 47, 1-(4-((6,7-dimethoxyquinolin-4-yl)oxy)-2-fluorophenyl)-3-(4-(4-methylpiperazine-1-carbonyl)-3-(trifluoromethyl)phenyl)urea]
Pf3D7 blood stage activity at single concentration (P. falciparum 3D7): Inactive^e

COc1cc2nccc(Oc3ccc(NC(=O)Nc4cc(C(=O)N5CCN(C)CC5)cc(C(F)(F)F)c4)c(F)c3)c2cc1OC [Compound 48, 1-(4-((6,7-dimethoxyquinolin-4-yl)oxy)-2-fluorophenyl)-3-(3-(4-methylpiperazine-1-carbonyl)-5-(trifluoromethyl)phenyl)urea formate]
Pf3D7 blood stage activity at single concentration (P. falciparum 3D7): Inactive^e

COc1cc2nccc(Oc3ccc(NC(=O)Nc4cccc(Br)c4)c(F)c3)c2cc1OC [Compound 50, 1-(3-bromophenyl)-3-(4-((6,7-dimethoxyquinolin-4-yl)oxy)-2-fluorophenyl)urea]
Pf3D7 blood stage activity at single concentration (P. falciparum 3D7): Inactive^d

COc1cc2nccc(Oc3ccc(NC(=O)Nc4cccc(C(C)C)c4)c(F)c3)c2cc1OC [Compound 52, 1-(4-((6,7-dimethoxyquinolin-4-yl)oxy)-2-fluorophenyl)-3-(3-isopropylphenyl)urea]
Pf3D7 blood stage activity at single concentration (P. falciparum 3D7): Inactive^d

COc1cccc(NC(=O)Nc2ccc(Oc3ccnc4cc(OC)c(OC)cc34)cc2F)c1 [Compound 54, 1-(4-((6,7-dimethoxyquinolin-4-yl)oxy)-2-fluorophenyl)-3-(3-methoxyphenyl)urea]
Pf3D7 blood stage activity at single concentration (P. falciparum 3D7): Inactive^d

COc1cc2nccc(Oc3ccc(NC(=O)Nc4cccc(OC(C)C)c4)c(F)c3)c2cc1OC [Compound 55, 1-(4-((6,7-dimethoxyquinolin-4-yl)oxy)-2-fluorophenyl)-3-(3-isopropoxyphenyl)urea]
Pf3D7 blood stage activity at single concentration (P. falciparum 3D7): Inactive^d

COc1cc2nccc(Oc3ccc(NC(=O)Nc4cccc(OC(F)F)c4)c(F)c3)c2cc1OC [Compound 56, 1-(3-(difluoromethoxy)phenyl)-3-(4-((6,7-dimethoxyquinolin-4-yl)oxy)-2-fluorophenyl)urea]
Pf3D7 blood stage activity at single concentration (P. falciparum 3D7): Inactive^d

COc1cc2nccc(Oc3ccc(NC(=O)Nc4cccc(C#N)c4)c(F)c3)c2cc1OC [Compound 58, 1-(3-cyanophenyl)-3-(4-((6,7-dimethoxyquinolin-4-yl)oxy)-2-fluorophenyl)urea]
Pf3D7 blood stage activity at single concentration (P. falciparum 3D7): Inactive^d

COc1cc2nccc(Oc3ccc(NC(=O)Nc4ccc(N5CCN(C)CC5)cc4)c(F)c3)c2cc1OC [Compound 59, 1-(4-((6,7-dimethoxyquinolin-4-yl)oxy)-2-fluorophenyl)-3-(4-(4-methylpiperazin-1-yl)phenyl)urea]
fold drop in activity against PfPK6 compared to 41 (PfPK6): 30 fold

COc1cc2nccc(Oc3ccc(NC(=O)Nc4ccc(CN5CCOCC5)cc4)c(F)c3)c2cc1OC [Compound 60, 1-(4-((6,7-dimethoxyquinolin-4-yl)oxy)-2-fluorophenyl)-3-(4-(morpholinomethyl)phenyl)urea]
Pf3D7 blood stage activity at single concentration (P. falciparum 3D7): Inactive^c

COc1cc2nccc(Oc3ccc(NC(=O)Nc4ccc(NC5CCN(C)CC5)cc4)c(F)c3)c2cc1OC [Compound 65, 1-(4-((6,7-dimethoxyquinolin-4-yl)oxy)-2-fluorophenyl)-3-(4-((1-methylpiperidin-4-yl)amino)phenyl)urea]
fold drop in activity against PfPK6 compared to 41 (PfPK6): 12 fold

COc1cc2nccc(Oc3ccc(NC(=O)Nc4ccc(OC5CCN(C)CC5)c(OC(F)(F)F)c4)c(F)c3)c2cc1OC [Compound 76, 1-(4-((6,7-dimethoxyquinolin-4-yl)oxy)-2-fluorophenyl)-3-(4-((1-methylpiperidin-4-yl)oxy)-3-(trifluoromethoxy)phenyl)urea]
fold improvement in P. falciparum blood stage potency on adding CF3 or OCF3 (P. falciparum 3D7): 4 fold

COc1cc2nccc(Oc3ccc(NC(=O)Nc4ccc(N(C)C5CCN(C)CC5)c(C(F)(F)F)c4)c(F)c3)c2cc1OC [Compound 77, 1-(4-((6,7-dimethoxyquinolin-4-yl)oxy)-2-fluorophenyl)-3-(4-(methyl(1-methylpiperidin-4-yl)amino)-3-(trifluoromethyl)phenyl)urea]
fold improvement in P. falciparum blood stage potency on adding CF3 or OCF3 (P. falciparum 3D7): 2 fold

COc1cc2nccc(Oc3ccc(NC(=O)Nc4ccc(CC5CCNCC5)c(OC(F)(F)F)c4)c(F)c3)c2cc1OC [Compound 80, 1-(4-((6,7-dimethoxyquinolin-4-yl)oxy)-2-fluorophenyl)-3-(4-(piperidin-4-ylmethyl)-3-(trifluoromethoxy)phenyl)urea]
fold improvement in P. falciparum blood stage potency on adding CF3 or OCF3 (P. falciparum 3D7): 2 fold

COc1cc2nccc(Oc3ccc(NC(=O)Nc4ccc(C=C5CCNCC5)c(C(F)(F)F)c4)c(F)c3)c2cc1OC [Compound 81, 1-(4-((6,7-dimethoxyquinolin-4-yl)oxy)-2-fluorophenyl)-3-(4-(piperidin-4-ylidenemethyl)-3-(trifluoromethyl)phenyl)urea]
fold improvement in P. falciparum blood stage potency on adding CF3 or OCF3 (P. falciparum 3D7): 2 fold

COc1cc2nccc(Oc3ccc(NC(=O)Nc4ccc(C=C5CCNCC5)c(OC(F)(F)F)c4)c(F)c3)c2cc1OC [Compound 82, 1-(4-((6,7-dimethoxyquinolin-4-yl)oxy)-2-fluorophenyl)-3-(4-(piperidin-4-ylidenemethyl)-3-(trifluoromethoxy)phenyl)urea]
fold improvement in P. falciparum blood stage potency on adding CF3 or OCF3 (P. falciparum 3D7): 2 fold

Reference: paper PMC10052868 (European journal of medicinal chemistry, 2022)
